Source: patent US20240041866A1, “PHARMACEUTICAL COMPOSITION” (FUJIFILM TOYAMA CHEMICAL CO., LTD., priority 2020, published 2024)

How the values were obtained:
[1] = cited from earlier work
[2] = Test Example 2: Appearance (degree of coloring) of aqueous solution left at 70° C.; type: physicochemical; conditions: stabilizing component added to aqueous solution of Compound A
Method: To examine the stabilizing effect of a stabilizing component, the degree of coloring was determined. […] Subsequently, the color tone of each filtrate was observed visually.

For `NC(=O)c1nc(F)c[nH]c1=O` [Compound A, 6-fluoro-3-hydroxy-2-pyrazinecarboxamide], the Water solubility [1] is listed as “low water solubility”.
For `O=C(O)CN(CCN(CC(=O)O)CC(=O)O)CC(=O)O` [EDTA, ethylenediamine tetraacetic acid], the “Results in view of appearance” value [2] was “particularly favorable”.
In the case of `O=C(O)CN(CCO)CCO` [bicine, N,N-bis(2-hydroxyethyl)glycine], the “Results in view of appearance” value [2] is reported as “particularly favorable”.
For `O=C(O)CNC(CO)(CO)CO` [tricine, N-[tris(hydroxymethyl)methyl]glycine], the “Results in view of appearance” value [2] was “particularly favorable”.
With `NC(CO)(CO)CO` [trometamol] the “Results in view of appearance” value [2] was “particularly favorable”.
